Results as given in paper PMC9436767, “Optical control of the β2-adrenergic receptor with opto-prop-2: A cis-active azobenzene analog of propranolol” (iScience, 2022).

Columns and labels:
[1] = Cis-to-trans thermal relaxation, Arrhenius extrapolation; assay type: physicochemical; conditions: PSScis sample 25 μM in HBSS buffer with 1% DMSO; Arrhenius extrapolation to 20 °C
Method: Solubility in buffer was explored for all compounds using nephelometry ([Bevan and Lloyd, 2000]) and these studies indicate good solubility of all azobenzene photoswiches up to at least 100 μM (Figure S1). […] For all compounds, 360 nm induces a large change in absorbance spectrum compared with the non-illuminated (dark) compounds (Table 1, Figure 2A, and S1), indicating photoisomerization to the cis-isomer. The absorbance peak (λmax) of Opto-prop-1-3 ranged between 319 and 347 nm for the trans-isomers and between 423 and 429 for the cis-isomers (Table 1), as is typical for azobenzene compounds ([Hauwert et al., 2018]). […] The photochemical conversions were determined by continuous illumination of the Opto-prop compounds with near UV-light (360 ± 20 nm) as 10-mM solutions in DMSO. Based on LCMS analysis, it was observed that all compounds obtained a high level of conversion to the cis-isomer with a photostationary state (PSS) of >88 area % cis-isomer (i.e. PSScis; Table 1). Subsequent back-switching to PSStrans with 434 nm maintained 22–29 area % cis-isomer (Table 1). The thermal relaxation of the PSScis state of the photoswitchable ligands was monitored over time by measuring absorbance at 254 nm. Only minor thermal relaxation to the trans-isomer could be detected at 20°C (not shown). An estimate of the relaxation rate at 20 °C was determined using a method by Priimagi et al. ([Ahmed et al., 2017]), which was performed in Hanks’ balanced salt solution (HBSS) using increased temperatures to enhance the speed of thermal relaxation. The Opto-prop ligands are all very stable as cis-isomer after illumination, with thermal relaxation half-lives of >10 days at 20 °C (See Table 1 and Figure S1).
Cis-to-trans thermal relaxations were performed in the dark at 25 μM of the PSS360 state of the Opto-prop-1, -2 or -3 in HBSS buffer with 1% DMSO at various temperatures (60°C, 70°C and 80°C). Absorbance was repeatedly measured at 320, 320 and 347 nm for Opto-prop-1, -2 or -3, respectively, with 60 s intervals.

[2] = target: T1, β2-AR (Homo sapiens, UniProt P07550); assay: NanoBiT complementation: mini-Gαs recruitment to β2-AR, Schild analysis
Method: (§1) Mixed stable populations of HEK-β2AR-β-arrestin2, or HEK-β2AR-mGs cells were generated by selection in G418 (0.8 mg^−1) and zeocin (200 μg mL^−1) for 7–10 days, in DMEM, supplemented with 10% fetal bovine serum (FBS; Sigma Aldrich).
(§2) The antagonist affinity (KD) was then estimated by a Schild plot of log [CR-1] against log [B] (the antagonist concentration) using the relationship: Log[CR−1]=Log[B]−LogKD.

[3] = target: T1, β2-AR; assay: NanoBiT complementation: β-arrestin2 recruitment to β2-AR, Schild analysis
Method: as §1, §2

[4] = at PSScis, agonist isoprenaline

T1 sequence (P07550 whole entry): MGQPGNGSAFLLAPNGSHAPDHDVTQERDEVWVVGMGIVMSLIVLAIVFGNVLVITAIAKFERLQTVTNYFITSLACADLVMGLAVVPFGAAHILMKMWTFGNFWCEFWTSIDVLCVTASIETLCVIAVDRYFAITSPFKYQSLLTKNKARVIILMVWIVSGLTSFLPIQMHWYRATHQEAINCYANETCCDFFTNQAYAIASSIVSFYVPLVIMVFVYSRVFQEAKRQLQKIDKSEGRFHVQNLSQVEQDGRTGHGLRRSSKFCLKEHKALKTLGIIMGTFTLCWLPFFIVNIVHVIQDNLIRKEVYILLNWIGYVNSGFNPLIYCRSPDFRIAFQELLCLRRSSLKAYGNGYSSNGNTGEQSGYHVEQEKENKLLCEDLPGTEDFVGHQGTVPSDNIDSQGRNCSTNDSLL

t1/2 20°C (thermal relaxation of cis-isomer) [1]: >240 h
Kb [2]: 25.1 nM
slope of the Schild-plot, mini-Gαs recruitment [2, 4]: 1.2
Kb [3]: 25.1 nM
slope of the Schild-plot, β-arrestin2 recruitment [3, 4]: 0.9
Compound: CC(C)NCC(O)COc1cccc(N=Nc2ccccc2)c1 (centres unmarked) [Opto-prop-2]
